The values that follow come from patent publication US20050277586A1, “Peptide chemically modified with polyethylene glycol” (priority 2002, published 2005).

Series [1] deals with Vero cell, T24 cell, A549 cell. The experiment in a line: Nucleic acid-introducing ability, luciferase-expressing plasmid (procedure of Example 9). It is filed as cell-based. The note with it: for Nucleic acid-introducing ability: luciferase plasmid 1 μg/mL, highest count of peptide 1.25, 2.5 or 5 μM, cell line not stated. The source says: A cell line established from monkey kidney (Vero cell) and a human bladder cancer cell (T24 cell) purchased from American Type Culture Collection (ATCC) and human lung cancer cell (A549 cell) purchased from Dainippon Pharmaceutical were inoculated on a 24 well culture plate (manufactured by NALGEN NUNC) at 1×10^5 cells/well. Vero cell and A549 cell were cultivated in DMEM (manufactured by Life Technologies Oriental) supplemented with 10% fetal bovine serum (hereinafter referred to as FBS, manufactured by NICHIREI), and T24 cell was cultivated in McCoy's 5a (manufactured by Life Technologies Oriental) supplemented with 10% FBS in 5% CO2 atmosphere at 37° C. for 24 hours. After removing the medium, opti-MEM (manufactured by Life Technologies Oriental) prepared to have the concentration of the luciferase-expressing plasmid prepared in Example 7 of 1 μg/mL and the concentration of the peptide prepared in Example 1 of 1.25, 2.5, or 5 μM was added, and the cells were cultivated for 5 hours. Next, in the case of Vero cell and A549 cell, the culture medium was replaced with DMEM supplemented with 10% FBS, and in the case of T24 cell, the medium was replaced with McCoy's 5a supplemented with 10% FBS, and cultivation was continued in 5% CO2 atmosphere and at 37° C. for another 24 hours. The luciferase activity expressed in the cell was then measured by the method instructed in luciferase assay system (manufactured by Promega). To be more specific, the cells were washed with phosphate-buffered saline (hereinafter referred to as PBS, manufactured by SIGMA), and the cells were lyzed with Passive Lysis Buffer attached to the kit.
20 μL of this cell lysate and 100 μL of the Luciferase Assay Reagent II attached to the kit was added to a fluorescence-measuring plate (Microlite™ 1 plate, manufactured by Dynatech), and after mixing, fluorescence was measured for 1 second by using a multilabel counter (ARVO™ SY1420 MULTILABEL COUNTER, manufactured by Wallac Beltold.
Concentration of the protein in the cell lysate was measured by mixing 8 μL of the cell lysate and 200 μL of the protein assay solution (manufactured by Biorad) with 792 μL of ultrapure water in a disposable cuvette (UV fluorescent cuvette A204X, manufactured by Funakoshi), allowing the mixture to stand for 5 minutes at room temperature, and measuring the absorption at 595 nm with a spectrophotometer (DU640, manufactured by Beckman). Bovine serum albumin (BSA) was used for the standard protein. By using the thus obtained results, count per 1 second per 1 mg of protein of the cell lysate was calculated to thereby use the count as the luciferase activity, and the highest count in the three conditions of different peptide concentration was designated the gene-introducing ability of the peptide.

In series [2] the target is phosphatidyl serine (binding of human Factor VIII). The experiment in a line: Affinity for phosphatidyl serine (EIA, inhibition of human Factor VIII binding). The note with it: for IC50: in the presence of 5% BSA, human Factor VIII 1 μg/mL. As to the method: The specific affinity of the peptide for phosphatidyl serine was evaluated by measuring activity of the peptide for inhibiting the binding of the human Factor VIII to phosphatidyl serine by using human Factor VIII which is known to bind to phosphatidyl serine but not to phosphatidyl choline in the presence of serum albumin. To be more specific, 100 μL of ethanol solution containing 10 μg/mL of phospholipids at a phosphatidyl serine (manufactured by SIGMA): phosphatidyl choline (manufactured by SIGMA) ratio of 3:7 was added to the wells of a 96 well plate (Immulon I, manufactured by Dynatech), and exsiccated by using a centrifugal evaporator (EC-95C, manufactured by Sakuma Seisakusho) at 40° C. for 40 minutes. 200 μL each of TBS (10 mM Tris-HCl (pH 7.4) containing 1% bovine serum albumin (BSA Fraction V, hereinafter referred to as BSA, manufactured by Seikagaku Corporation) and 0.9% (W/V) NaCl solution were added to each well, and the wells were blocked by allowing the plate to stand at 37° C. for 2.5 hours. After washing the plate with water, 100 μL of TBS solution supplemented with 5% BSA mixed with human Factor VIII (manufactured by American Diagnostica) at a final concentration 1 μg/mL and the peptide of predetermined dose prepared in Example 1 was added to each well, and the reaction was allowed to take place at 4° C. for 24 hours.
After the completion of the reaction, the human Factor VIII that became bound to the phosphatidyl serine was measured by enzyme immunoassay (EIA) in accordance with the general procedure described in a book (“Enzyme Immunoassay (3rd ed.)”, Eiji Ishikawa et al., Igaku-Shoin, 1987). To be more specific, the measurement was conducted by using anti-human Factor VIII mouse monoclonal antibody (ESH8, manufactured by American Diagnostica) for the primary antibody, horseradish peroxidase-labeled anti-mouse IgG antibody (P0260, manufactured by Daco) for the secondary antibody, and tetramethylbenzidine for the chromogenic substrate, and measuring the absorption at a wavelength of 450 nm by using a reference wavelength of 630 nm on a spectrophotometer (NJ-2100, manufactured by Intermed).
Intensity of the affinity of the peptide for the phosphatidyl serine was evaluated by using the value obtained by subtracting the absorption of the well having no human Factor VIII added thereto from the absorption of the well having only the human Factor VIII added thereto as the control value (100%), and designating the peptide concentration at which the value 0.5 was obtained when the value obtained by subtracting the absorption of the well having only the peptide added thereto from the absorption of the well having a mixture of the human Factor VIII and the peptide added thereto were divided by the control value as the IC50 value, and evaluating the intensity to be ++ when the IC50 value was up to 1 μM, and + when the intensity was more than 1 μM but not more than 10 μM. It is to be noted that the specific affinity was evaluated to be none when the intensity was 10 μM or more.

A short description of series [3]: Measurement of turbidity in BSA (absorbance at 600 nm). It is filed as physicochemical. The note with it: 1% BSA, peptide 50 μM. As to the method:
The solutions were evaluated for their absorbance at a wavelength of 600 nm by using a spectrophotometer (DU640, manufactured by Beckman).

Consider “SEQ ID NO: 12: SEQ ID NO: 1 with one or two locations in the 18 amino acid sequence substituted (TRYLRIHPRSWVHQIALSLRYLRIHPRSWVHQIALSS)”, for which the Nucleic acid-introducing ability in series [1] is recorded as 2+ (100,000 to less than 1,000,000).
Same read-out and setting: for “SEQ ID NO: 13: SEQ ID NO: 1 with one or two locations in the 18 amino acid sequence substituted (TRYLRIHPRSLVHQIALRLRYLRIHPRSLVHQIALRS)” the value was 3+ (1,000,000 to less than 10,000,000).
“TIHPRSWVHQIALRLRYLRIHPRSWVHQIAS [SEQ ID NO: 23]”: in series [1], the Nucleic acid-introducing ability is 2+ (100,000 to less than 1,000,000). The “Ability of introducing the nucleic acid into a cell” value in series [1] (procedure of Example 9) is given as “had the ability of introducing the nucleic acid into a cell”. The IC50 in series [2] is less than 1000 nM. The substance also yielded an OD 600 in series [3] of less than 0.01.
For the substance “TRYLRIHPKSWVHQIALRLRYLKIHPRSWVHQIALRS [SEQ ID NO: 8]”, in series [1], the Nucleic acid-introducing ability is listed as 3+ (1,000,000 to less than 10,000,000). Besides, the IC50 in series [2] lay within 1000 to 10000 nM. This substance also came in with an OD 600 in series [3] of less than 0.01.
As for “SEQ ID NO: 24: deletion mutant of the peptide of SEQ ID NO: 4 (TLRYLRIHPRSWLHQIALRS)”, in series [1], the Nucleic acid-introducing ability is listed as 1+ (10,000 to less than 100,000). Besides, the “Ability of introducing the nucleic acid into a cell” value in series [1] (procedure of Example 9) is given as “had the ability of introducing the nucleic acid into a cell”.
Regarding “SEQ ID NO: 14: SEQ ID NO: 1 with one or two locations in the 18 amino acid sequence substituted (TRYLRIHPRSWSHQIALRLRYLRIHPRSWSHQIALRS)”, in series [1], the Nucleic acid-introducing ability is 3+ (1,000,000 to less than 10,000,000).
Take “TRSLRIHPRLWVHQIALRLRSLRIHPRLWVHQIALRS [SEQ ID NO: 17]”: the Nucleic acid-introducing ability in series [1] is recorded as 2+ (100,000 to less than 1,000,000). For the same substance, in series [2], the IC50 is less than 1000 nM. In addition, in series [3], the OD 600 is less than 0.01.
With “SEQ ID NO: 21: SEQ ID NO: 1 with three locations in the 18 amino acid sequence substituted (TKYLKIHPKSWVHQIALRLKYLKIHPKSWVHQIALRS)”, the Nucleic acid-introducing ability in series [1] is given as 2+ (100,000 to less than 1,000,000).
Turning to “TRYLRIHPRSWVHQIALKLKYLRIHPRSWVHQIALRS [SEQ ID NO: 7]”, the Nucleic acid-introducing ability in series [1] is listed as 2+ (100,000 to less than 1,000,000). Also, the IC50 in series [2] fell in the range of 1000 to 10000 nM. Further, in series [3], the OD 600 is less than 0.01.
Consider “SEQ ID NO: 20: SEQ ID NO: 1 with three locations in the 18 amino acid sequence substituted (TRYLRLHPRSWVHQLALRTRYLRLHPRSWVHQLALRS)”, for which, in series [1], the Nucleic acid-introducing ability is reported as 4+ (10,000,000 to less than 100,000,000).
Consider “SEQ ID NO: 26: SEQ ID NO: 1 with amino acid substitution so that it lacks the four sided 18 amino acid sequence (TRYLRIHPRSWVLQIALRLRYLRIHPRSWVLQIALRS) [reference compound]”, for which, in series [1] (procedure of Example 9), the “Ability of introducing the nucleic acid into a cell” value is given as “no nucleic acid-introducing ability was found” and the “Fluorescent count per 1 mg of protein per 1 second” value is “less than 10,000 cps/mg protein”.
On to “SEQ ID NO: 22: SEQ ID NO: 1 with three locations in the 18 amino acid sequence substituted (TRRLRIHPRRWVHRIALRLRRLRIHPRRWVHRIALRS)”, for which the Nucleic acid-introducing ability in series [1] was 3+ (1,000,000 to less than 10,000,000).
Consider “TRYLRIRPRSWVRQIALRLRYLRIRPRSWVRQIALRS [SEQ ID NO: 15]”, for which, in series [1], the Nucleic acid-introducing ability is 2+ (100,000 to less than 1,000,000). The IC50 in series [2] is less than 1000 nM. This substance came in with an OD 600 in series [3] of less than 0.01.
“SEQ ID NO: 18: SEQ ID NO: 1 with one or two locations in the 18 amino acid sequence substituted (TRYLRIHPRSWLHQIALRTRYLRIHPRSWLHQIALRS)”: the Nucleic acid-introducing ability in series [1] is reported as 4+ (10,000,000 to less than 100,000,000).
On to “TRYLRLHPRSWLHQLALRLRYLRLHPRSWLHQLALRS [SEQ ID NO: 19]”, for which, in series [1], the Nucleic acid-introducing ability was 4+ (10,000,000 to less than 100,000,000). Besides, the IC50 in series [2] was less than 1000 nM. Further, in series [3], the OD 600 is less than 0.01.
As for Polylysine [reference compound], the “Affinity for phosphatidyl serine” value in series [2] (procedure of Example 20) is “no affinity for phosphatidyl serine”. Besides, the “OD 600” value in series [3] is listed as no less than 1.
On to “TRYLRIHPRSWVHNIALRLRYLRIHPRSWVHNIALRS [SEQ ID NO: 6]”, for which the Nucleic acid-introducing ability in series [1] was 2+ (100,000 to less than 1,000,000). In addition, the IC50 in series [2] is less than 1000 nM. Moreover, the OD 600 in series [3] is less than 0.01.
Taken in the same sequence, the figures for “TRYLRIHPRLWVHQIALRLRYLRIHPRLWVHQIALRS [SEQ ID NO: 11]” were 3+ (1,000,000 to less than 10,000,000), 1000 to 10000 nM and less than 0.01.
Take “SEQ ID NO: 9: SEQ ID NO: 1 with one or two locations in the 18 amino acid sequence substituted (TRYLRIHPRSWVHQIALRTRYLRIHPRSWVHQIALRS)”: the Nucleic acid-introducing ability in series [1] was 3+ (1,000,000 to less than 10,000,000).
In the case of “TRYLRIHPRSWVRQIALRLRYLRIHPRSWVRQIALRS [SEQ ID NO: 2]”, the Nucleic acid-introducing ability in series [1] is 3+ (1,000,000 to less than 10,000,000). Moreover, the IC50 in series [2] was less than 1000 nM. The same substance gave an OD 600 in series [3] of less than 0.01.
With “TRFLRIHPRSWVHQIALRLRFLRIHPRSWVHQIALRS [SEQ ID NO: 5]”, in series [1], the Nucleic acid-introducing ability is listed as 2+ (100,000 to less than 1,000,000). Also, the IC50 in series [2] was less than 1000 nM. In series [3], this substance returned an OD 600 of less than 0.01.
As to “TRSLRIHPRSWVHQIALRLRSLRIHPRSWVHQIALRS [SEQ ID NO: 10]”, in series [1], the Nucleic acid-introducing ability is reported as 3+ (1,000,000 to less than 10,000,000). The IC50 in series [2] lay in the range of 1000 to 10000 nM. Further, the OD 600 in series [3] was less than 0.01.
For “TRYLRIHPRSWVHQIRLRLRYLRIHPRSWVHQIRLRS [SEQ ID NO: 3]” the same measures were 2+ (100,000 to less than 1,000,000), less than 1000 nM and less than 0.01.
